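96-well plates; 48 h exposure; 5 concentrations. Endpoints by linear interpolation between flanking doses. Not reached: highest tested concentration assigned. TGI: concentration producing complete growth inhibition.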
How the values were obtained:
Assay in all cases: growth of human tumour cells (NCI), 48 h
[1] = system: A549 NSCLC
[2] = system: ACHN renal
[3] = system: DLD-1 colon
[4] = system: DMS 114 small cell lung
[5] = system: DMS 273 small cell lung
[6] = system: HCT-116 colon
[7] = system: HCT-15 colon
[8] = system: HOP-18 NSCLC
[9] = system: HT29 colon
[10] = system: IGROV1 ovarian
[11] = system: KM12 colon
[12] = system: LOX IMVI melanoma
[13] = system: LXFL 529 NSCLC
[14] = system: M19-MEL melanoma
[15] = system: MALME-3M melanoma
[16] = system: MOLT-4 leukemia
[17] = system: NCI-H226 lung
[18] = system: NCI-H23 lung
[19] = system: NCI-H460 lung
[20] = system: NCI-H522 lung
[21] = system: OVCAR-3 ovarian
[22] = system: OVCAR-4 ovarian
[23] = system: OVCAR-8 ovarian
[24] = system: RXF 393 renal
[25] = system: SF-268 CNS
[26] = system: SF-295 CNS
[27] = system: SF-539 CNS
[28] = system: SK-MEL-2 melanoma
[29] = system: SK-MEL-28 melanoma
[30] = system: SK-MEL-5 melanoma
[31] = system: SK-OV-3 ovarian
[32] = system: SN12C renal
[33] = system: SNB-19 CNS
[34] = system: SNB-75 CNS
[35] = system: SNB-78 CNS
[36] = system: TK-10 renal
[37] = system: UACC-257 melanoma
[38] = system: UACC-62 melanoma
[39] = system: UO-31 renal
[40] = system: 786-0 renal
[41] = system: A498 renal
[42] = system: BT-549 breast
[43] = system: CAKI-1 renal
[44] = system: CCRF-CEM leukemia
[45] = system: COLO 205 colon
[46] = system: DU-145 prostate
[47] = system: EKVX NSCLC
[48] = system: HCC-2998 colon
[49] = system: HL-60(TB) leukemia
[50] = system: HOP-62 NSCLC
[51] = system: HOP-92 NSCLC
[52] = system: HS 578T breast
[53] = system: K-562 leukemia
[54] = system: M14 melanoma
[55] = system: MCF7 breast
[56] = system: MDA-MB-231 breast
[57] = system: MDA-MB-435
[58] = system: MDA-N
[59] = system: NCI/ADR-RES ovarian
[60] = system: OVCAR-5 ovarian
[61] = system: PC-3 prostate
[62] = system: RPMI-8226 leukemia
[63] = system: SR leukemia
[64] = system: SW-620 colon
[65] = system: T-47D breast
[66] = system: U251 CNS
[67] = system: KM20L2 colon
[68] = system: XF 498 CNS

## CC(=O)Oc1cc(OC(C)=O)c2c(=O)c3ccccc3n(C)c2c1
[1]
  TGI: > 100 µM
[2]
  TGI: 65.1 µM
[3]
  TGI: 91.3 µM
[4]
  TGI: 96.5 µM
[5]
  TGI: > 100 µM
[6]
  TGI: 74.7 µM
[7]
  TGI: > 100 µM
[8]
  TGI: 57.1 µM
[9]
  TGI: 64.5 µM
[10]
  TGI: 68.4 µM
[11]
  TGI: > 100 µM
[12]
  TGI: 28.1 µM
[13]
  TGI: > 100 µM
[14]
  TGI: 52.2 µM
[15]
  TGI: 48.8 µM
[16]
  TGI: > 100 µM
[17]
  TGI: 40.5 µM
[18]
  TGI: 77.6 µM
[19]
  TGI: 67.5 µM
[20]
  TGI: 52.8 µM
[21]
  TGI: > 100 µM
[22]
  TGI: > 100 µM
[23]
  TGI: 64.4 µM
[24]
  TGI: 75.2 µM
[25]
  TGI: 76.5 µM
[26]
  TGI: 44.2 µM
[27]
  TGI: 42.2 µM
[28]
  TGI: 97.1 µM
[29]
  TGI: 59.9 µM
[30]
  TGI: 29.7 µM
[31]
  TGI: 59.8 µM
[32]
  TGI: 88.2 µM
[33]
  TGI: > 100 µM
[34]
  TGI: 76.3 µM
[35]
  TGI: 84.3 µM
[36]
  TGI: > 100 µM
[37]
  TGI: 84.1 µM
[38]
  TGI: > 100 µM
[39]
  TGI: 53.8 µM

## CC[C@@H](CCCC[C@@H]1CC[C@H]2CC(=O)C[C@@H]12)OC
[40]
  TGI: > 100 µM
[41]
  TGI: > 100 µM
[1]
  TGI: > 100 µM
[2]
  TGI: > 100 µM
[42]
  TGI: > 100 µM
[43]
  TGI: > 100 µM
[44]
  TGI: > 100 µM
[45]
  TGI: > 100 µM
[46]
  TGI: > 100 µM
[47]
  TGI: > 100 µM
[48]
  TGI: > 100 µM
[6]
  TGI: > 100 µM
[7]
  TGI: > 100 µM
[49]
  TGI: > 100 µM
[50]
  TGI: > 100 µM
[51]
  TGI: > 100 µM
[52]
  TGI: > 100 µM
[9]
  TGI: > 100 µM
[10]
  TGI: > 100 µM
[53]
  TGI: > 100 µM
[11]
  TGI: > 100 µM
[12]
  TGI: > 100 µM
[54]
  TGI: > 100 µM
[15]
  TGI: > 100 µM
[55]
  TGI: > 100 µM
[56]
  TGI: > 100 µM
[57]
  TGI: > 100 µM
[58]
  TGI: > 100 µM
[16]
  TGI: > 100 µM
[17]
  TGI: > 100 µM
[18]
  TGI: > 100 µM
[19]
  TGI: > 100 µM
[20]
  TGI: > 100 µM
[59]
  TGI: > 100 µM
[21]
  TGI: > 100 µM
[22]
  TGI: > 100 µM
[60]
  TGI: > 100 µM
[23]
  TGI: > 100 µM
[61]
  TGI: > 100 µM
[62]
  TGI: > 100 µM
[24]
  TGI: > 100 µM
[25]
  TGI: > 100 µM
[26]
  TGI: > 100 µM
[27]
  TGI: > 100 µM
[28]
  TGI: > 100 µM
[29]
  TGI: > 100 µM
[30]
  TGI: > 100 µM
[31]
  TGI: > 100 µM
[32]
  TGI: > 100 µM
[33]
  TGI: > 100 µM
[34]
  TGI: > 100 µM
[63]
  TGI: > 100 µM
[64]
  TGI: > 100 µM
[65]
  TGI: > 100 µM
[36]
  TGI: > 100 µM
[66]
  TGI: > 100 µM
[37]
  TGI: > 100 µM
[38]
  TGI: > 100 µM

## FC(F)(F)P1C2C=CC(CC2)C1(F)F (configuration not stated)
[40]
  TGI: > 100 µM
[41]
  TGI: > 100 µM
[1]
  TGI: > 100 µM
[2]
  TGI: > 100 µM
[43]
  TGI: > 100 µM
[44]
  TGI: > 100 µM
[45]
  TGI: > 100 µM
[3]
  TGI: > 100 µM
[4]
  TGI: > 100 µM
[5]
  TGI: > 100 µM
[47]
  TGI: > 100 µM
[48]
  TGI: > 100 µM
[6]
  TGI: > 100 µM
[7]
  TGI: > 100 µM
[49]
  TGI: > 100 µM
[8]
  TGI: > 100 µM
[50]
  TGI: > 100 µM
[9]
  TGI: > 100 µM
[10]
  TGI: > 100 µM
[53]
  TGI: > 100 µM
[11]
  TGI: > 100 µM
[67]
  TGI: > 100 µM
[12]
  TGI: > 100 µM
[13]
  TGI: > 100 µM
[54]
  TGI: > 100 µM
[14]
  TGI: > 100 µM
[15]
  TGI: > 100 µM
[16]
  TGI: > 100 µM
[17]
  TGI: > 100 µM
[18]
  TGI: > 100 µM
[19]
  TGI: > 100 µM
[20]
  TGI: > 100 µM
[22]
  TGI: > 100 µM
[60]
  TGI: > 100 µM
[23]
  TGI: > 100 µM
[62]
  TGI: > 100 µM
[24]
  TGI: > 100 µM
[25]
  TGI: > 100 µM
[26]
  TGI: > 100 µM
[27]
  TGI: > 100 µM
[28]
  TGI: > 100 µM
[29]
  TGI: > 100 µM
[30]
  TGI: > 100 µM
[31]
  TGI: > 100 µM
[32]
  TGI: > 100 µM
[33]
  TGI: > 100 µM
[34]
  TGI: > 100 µM
[35]
  TGI: > 100 µM
[64]
  TGI: > 100 µM
[36]
  TGI: > 100 µM
[66]
  TGI: > 100 µM
[37]
  TGI: > 100 µM
[38]
  TGI: > 100 µM
[39]
  TGI: > 100 µM
[68]
  TGI: > 100 µM
